# Patent US20030049697A1, “Family of mechanosensitive human potassium channels activated by polyunsaturated fatty acids and their use” (CENTRE NATIONAL DE LA RECHERCHE SCIENTIFIQUE, C.N.R.S., priority 2000, published 2003)
# Columns and labels:
# hTRAAK [1] = molecular target: T1, hTRAAK (Homo sapiens, UniProt Q9NYG8); assay: Whole cell configuration electrophysiology of hTRAAK current in transfected COS cells; format: cell-based
# T1 construct: expressed in transfected cells; host or cells: COS-7 cells, transient DEAE-dextran transfection of pIRES-CD8.hTRAAK
# T1 sequence (Q9NYG8 1-393): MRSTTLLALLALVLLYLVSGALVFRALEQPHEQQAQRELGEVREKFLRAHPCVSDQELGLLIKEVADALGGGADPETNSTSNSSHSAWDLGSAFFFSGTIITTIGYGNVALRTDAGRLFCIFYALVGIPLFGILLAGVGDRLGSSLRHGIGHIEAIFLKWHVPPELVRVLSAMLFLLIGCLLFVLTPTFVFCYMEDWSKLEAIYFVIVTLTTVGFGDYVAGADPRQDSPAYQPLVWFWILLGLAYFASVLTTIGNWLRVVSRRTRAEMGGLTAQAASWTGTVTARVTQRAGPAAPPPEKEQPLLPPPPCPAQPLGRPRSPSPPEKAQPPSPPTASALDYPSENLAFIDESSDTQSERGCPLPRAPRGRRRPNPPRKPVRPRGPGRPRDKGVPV
# Method: Electrophysiological experiments were performed in COS cells transfected in a temporary manner.
# It has been shown that certain members of the family of K^+ channels with two P domains (TREK-1 and TASK-1) are opened by volatile general anesthetics (Patel et al., 1999). We, therefore, also investigated the effect of chloroform on hTRAAK.
# In fact, the opening of the channel is mediated by a deformation of the membrane (Maingret et al., 1999 (a); Patel et al., 1998).
# The COS-7 cells were maintained in Eagle medium as modified by Dulbecco supplemented with 10% fetal calf's serum. The plasmid pIRES-cD8-hTRAAK was transfected using the conventional DEAE dextran procedure. The positive cells were visualized 48 h after transfection using the method of beads covered by the anti-CD8 antibody (Maingret et al., 1999 (a); Maingret et al., 1999 (b)).
# For the experiments on whole cells and the outside-in experiments, the pipette solution (INT) contained 150 mM KCl, […], 5 mM EGTA and 10 mM HEPES, pH adjusted with KOH. The bath solution (EXT) contained 150 mM NaCl, 5 mM KCl, 3 mM MgCl2, 1 mM CaCl2 and 10 mM HEPES, pH 7.4 adjusted with NaOH. For the inside-out experiments, the solution in the pipette was EXT and the bath solution was INT. The EXT solution rich in K^+ contained 150 mM KCl in place of 150 mM NaCl. To study the selectivity of the ions, the relationships between the current and the voltage were obtained at different ext. K^+ concentrations. For each concentration, NaCl was replaced in the EXT solution by equimolar KCl.
# All of the products were obtained from Sigma. The fatty acids were dissolved in ethanol at the concentration of 100 mM, put under argon and stored at […] for one week.
# hTRAAK [2] = molecular target: T1, hTRAAK; assay: Excised patch (outside-out configuration) recording of hTRAAK in transfected COS cells; format: cell-based
# Method: Under physiological conditions, the current induced by AA is outward rectifying and changes direction at […], n=7 (FIG. 5A). When the exterior Na^+ is replaced by K^+, the current becomes linear and the direction change potential is −0.6±0.8 mV, n=7 (FIG. 5B). hTRAAK is also activated by the polyunsaturated acid decosahexaenoate (10 μM, n=3), but is insensitive to the saturated fatty acids myristate, palmitate, stearate and arachinate (10 μM, n=6 to 8). […] The stimulation by AA of hTRAAK remains then when the patch is excised (FIG. 5C). The current induced by AA observed in an outside-out configuration is outward rectifying and changes direction at the reverse potential of K^+ (FIG. 5C, box). […] In fact, the opening of the channel is mediated by a deformation of the membrane (Maingret et al., 1999 (a); Patel et al., 1998). FIG. 5D illustrates the mechanical sensitivity of hTRAAK. In the reverse patch configuration, the activity of the channel is almost absent at atmospheric pressure. Application of negative pressure opens the channels in a dose-dependent manner.
# The COS-7 cells were maintained in Eagle medium as modified by Dulbecco supplemented with 10% fetal calf's serum. The plasmid pIRES-cD8-hTRAAK was transfected using the conventional DEAE dextran procedure. […]
smiles,measurement,setting,value
Nc1ccncc1 [4AP],sensitivity of hTRAAK to K+ channel blocking agent,"hTRAAK [1]; 3 mM, whole cell configuration",insensitive
CC[N+](CC)(CC)CC [TEA],sensitivity of hTRAAK to K+ channel blocking agent,"hTRAAK [1]; 10 mM, whole cell configuration",insensitive
ClC(Cl)Cl [chloroform],effect on the channel's activity,"hTRAAK [1]; 0.8 mM, n=8",no effect
C=C[C@H]1C[N@@]2CC[C@H]1C[C@@H]2[C@@H](O)c1ccnc2ccc(OC)cc12 [quinidine],sensitivity of hTRAAK to K+ channel blocking agent,"hTRAAK [1]; 100 μm, whole cell configuration",insensitive
CCCCCCCCCCCCCCCCCCCC(=O)O [arachinate],sensitivity of hTRAAK to saturated fatty acids,"hTRAAK [1]; 10 μM, n=6 to 8",insensitive
[Ba+2] [barium],sensitivity of hTRAAK to K+ channel blocking agent,"hTRAAK [1]; 1 mM, whole cell configuration",insensitive
CCCCC/C=C\C/C=C\C/C=C\C/C=C\CCCC(=O)O [arachidonic acid],stimulation of hTRAAK when the patch is excised,hTRAAK [2],remains
same,potentiation of human TRAAK activity,"hTRAAK [1]; 10 μm, whole cell configuration, at 0 mV, n=19",630±101%
same,reversibility of activation,hTRAAK [1]; by means of washing,completely reversible
same,direction change potential of the induced current,"hTRAAK [1]; exterior Na+ replaced by K+, n=7",−0.6±0.8 mV
same,potential at which the induced current changes direction,"hTRAAK [1]; physiological conditions, n=7",-80.6 ± 0.9 mV
COc1ccc(Cl)cc1C(=O)NCCc1ccc(S(=O)(=O)NC(=O)NC2CCCCC2)cc1 [glibenclamide],sensitivity of hTRAAK to K+ channel blocking agent,"hTRAAK [1]; 10 μM, whole cell configuration",insensitive
CC/C=C\C/C=C\C/C=C\C/C=C\C/C=C\C/C=C\CCC(=O)O [decosahexaenoate],activation of hTRAAK by polyunsaturated fatty acid,"hTRAAK [1]; 10 μM, n=3",activated
Nc1nc2ccc(OC(F)(F)F)cc2s1 [riluzole],activation of hTRAAK,hTRAAK [1]; no concentration or data printed,activated
